In the test the target is T1, cholesteryl ester transfer protein (Homo sapiens, UniProt P11597).
T1 construct: As a source of cholesteryl ester transfer protein, plasma from healthy humans was used; from tissue; host or cells: plasma from healthy humans
T1 sequence (P11597 18-493): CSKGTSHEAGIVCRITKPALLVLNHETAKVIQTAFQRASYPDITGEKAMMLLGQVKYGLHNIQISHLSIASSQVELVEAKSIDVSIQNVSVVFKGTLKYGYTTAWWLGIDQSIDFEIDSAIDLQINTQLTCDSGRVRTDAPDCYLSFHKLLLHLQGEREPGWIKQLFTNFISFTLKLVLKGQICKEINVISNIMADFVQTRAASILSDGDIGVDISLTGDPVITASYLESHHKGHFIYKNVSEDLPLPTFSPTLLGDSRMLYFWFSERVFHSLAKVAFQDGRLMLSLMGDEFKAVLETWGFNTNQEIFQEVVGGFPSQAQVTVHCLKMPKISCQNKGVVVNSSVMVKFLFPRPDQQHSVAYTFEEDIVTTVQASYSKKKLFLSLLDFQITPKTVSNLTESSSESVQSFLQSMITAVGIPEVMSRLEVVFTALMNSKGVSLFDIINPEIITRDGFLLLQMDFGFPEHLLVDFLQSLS
The test can be described thus: In vitro test for the ability to inhibit cholesteryl ester transfer. The class given is biochemical. The settings on record: [3H]-cholesteryl oleate transfer from rHDL-agarose to LDL; human plasma as CETP source; 37° C.; 16-10000 nM, duplicate. The text has this:
In Vitro Test for the Ability to Inhibit Cholesteryl Ester Transfer
1. Preparation of Cholesteryl Ester Donor
In order to prepare a cholesteryl ester donor to be used in the test, a radiolabeled recombinant HDL containing [^3H]-cholesteryl oleate (GE healthcare, TRK886, 3.5 μCi/mg of apoA-1) and apoA-1 was synthesized. Then, rHDL-agarose obtained by immobilizing the recombinant HDL with CNBr-activated Sepharose 4B resin (Amersham Biosciences, Sweden) was used in the test.
2. Cholesteryl Ester Transfer Test
As a source of cholesteryl ester transfer protein, plasma from healthy humans was used, and as cholesteryl ester receptor, LDL from healthy humans was used. Each of test compounds was added to be final concentrations of 16, 80, 400, 2000 and 10000 nM and tested in duplicate. In order to test cholesteryl ester transfer, 20 μl of plasma, 50 μl of LDL (0.25 mg/ml) and 50 μl of rHDL-agarose (0.25 mg/ml) were mixed with each other, and a solution of each test compound was added thereto and reacted thereto at 37° C. Then, the reaction solution was centrifuged at 4° C. for 3 minutes, thereby the reaction was stopped. 150 μl of the supernatant was transferred into a 96-well plate for radioactivity measurement, and the radioactivity thereof was measured with a beta-ray detector.
3. Statistical Processing
The ratio of [^3H]-cholesteryl oleate transferred from HDL to LDL was determined, and based on the determined ratio, the IC50 value of each compound was determined using GraphPad Prism 5.0.

The structures appear in SMILES notation.

This note sets out measurements from patent US9371294B2, “Cycloalkenyl aryl derivatives for CETP inhibitor” (CHONG KUN DANG PHARMACEUTICAL CORP., priority 2011, dated 2016).

What is called IC50 is the concentration needed to halve the response being measured. A low value points to greater potency in that assay.

In the case of `COc1ccc(CC2(C(=O)O)CCCC2)cc1C1=C(CN2C(=O)O[C@H](c3cc(C(F)(F)F)cc(C(F)(F)F)c3)[C@@H]2C)CC(C)(C)CC1` [Compound 324, 1-(3-(2-(((4S,5R)-5-(3,5-bis(trifluoromethyl)phenyl)-4-methyl-2-oxooxazolidin-3-yl)methyl)-4,4-dimethylcyclohex-1-enyl)-4-methoxybenzyl)cyclopentanecarboxylic acid], the midpoint of inhibition, the IC50, lay at 97 nM.
Then `COc1cc2c(cc1C1=C(CN3C(=O)O[C@H](c4cc(C(F)(F)F)cc(C(F)(F)F)c4)[C@@H]3C)CC(C)(C)CC1)OCO2` [Compound 223, (4S,5R)-5-(3,5-bis(trifluoromethyl)phenyl)-3-((2-(6-methoxybenzo[d][1,3]dioxol-5-yl)-5,5-dimethylcyclohex-1-enyl)methyl)-4-methyloxazolidin-2-one], with 100 nM; and `COc1cc(C)c(N(C)C(C)=O)cc1C1=C(CN2C(=O)O[C@H](c3cc(C(F)(F)F)cc(C(F)(F)F)c3)[C@@H]2C)CC(C)(C)CC1` [Compound 249, N-(5-(2-(((4S,5R)-5-(3,5-bis(trifluoromethyl)phenyl)-4-methyl-2-oxooxazolidin-3-yl)methyl)-4,4-dimethylcyclohex-1-enyl)-4-methoxy-2-methylphenyl)-N-methylacetamide], with 1 nM; and `COc1cc(F)c(C(C)C)cc1C1=C(CN2C(=O)O[C@H](c3cc(C(F)(F)F)cc(C(F)(F)F)c3)[C@@H]2C)CC(F)(F)CC1` [Compound 123, (4S,5R)-5-(3,5-bis(trifluoromethyl)phenyl)-3-((5,5-difluoro-2-(4-fluoro-5-isopropyl-2-methoxyphenyl)cyclohex-1-enyl)methyl)-4-methyloxazolidin-2-one], with 20 nM.
Regarding `COc1ccc(C(O)(C(F)(F)F)C(F)(F)F)cc1C1=C(CN2C(=O)O[C@H](c3cc(C(F)(F)F)cc(C(F)(F)F)c3)[C@@H]2C)CC(C)(C)CC1` [Compound 181, (4S,5R)-5-(3,5-bis(trifluoromethyl)phenyl)-3-((2-(5-(1,1,1,3,3,3-hexafluoro-2-hydroxypropan-2-yl)-2-methoxyphenyl)-5,5-dimethylcyclohex-1-enyl)methyl)-4-methyloxazolidin-2-one], the midpoint of inhibition, the IC50, lay at 50 nM.
`COc1ccc(CCC#N)cc1C1=C(CN2C(=O)O[C@H](c3cc(C(F)(F)F)cc(C(F)(F)F)c3)[C@@H]2C)CC(C)(C)CC1` [Compound 300, 3-(3-(2-(((4S,5R)-5-(3,5-bis(trifluoromethyl)phenyl)-4-methyl-2-oxooxazolidin-3-yl)methyl)-4,4-dimethylcyclohex-1-enyl)-4-methoxyphenyl)propanenitrile] registered an IC50 of 1 nM.
`COc1ccc(-c2nnn(C)n2)cc1C1=C(CN2C(=O)O[C@H](c3cc(C(F)(F)F)cc(C(F)(F)F)c3)[C@@H]2C)CC(C)(C)CC1` [Compound 338, (4S,5R)-5-(3,5-bis(trifluoromethyl)phenyl)-3-((2-(2-methoxy-5-(2-methyl-2H-tetrazol-5-yl)phenyl)-5,5-dimethylcyclohex-1-enyl)methyl)-4-methyloxazolidin-2-one] gave a half-inhibitory concentration (IC50) of 35 nM.
For the compound `COC(=O)Cc1cc2c(c(C3=C(CN4C(=O)O[C@H](c5cc(C(F)(F)F)cc(C(F)(F)F)c5)[C@@H]4C)CC(C)(C)CC3)c1)OCO2` [Compound 317, methyl 2-(7-(2-(((4S,5R)-5-(3,5-bis(trifluoromethyl)phenyl)-4-methyl-2-oxooxazolidin-3-yl)methyl)-4,4-dimethylcyclohex-1-enyl)benzo[d][1,3]dioxol-5-yl)acetate], the 50% inhibitory concentration (IC50) worked out at 54 nM.
In the case of `COc1ccc(C(C)C)cc1C1=C(CN2C(=S)O[C@H](c3cc(C(F)(F)F)cc(C(F)(F)F)c3)[C@@H]2C)CC(C)(C)CC1` [Compound 15, (4S,5R)-5-(3,5-bis(trifluoromethyl)phenyl)-3-((2-(5-isopropyl-2-methoxyphenyl)-5,5-dimethylcyclohex-1-enyl)methyl)-4-methyloxazolidine-2-thione] it was 600 nM.
In the case of `COc1ccc(N(C)C(=O)C(C)(C)O)cc1C1=C(CN2C(=O)O[C@H](c3cc(C(F)(F)F)cc(C(F)(F)F)c3)[C@@H]2C)CC(C)(C)CC1` [Compound 244, N-(3-(2-(((4S,5R)-5-(3,5-bis(trifluoromethyl)phenyl)-4-methyl-2-oxooxazolidin-3-yl)methyl)-4,4-dimethylcyclohex-1-enyl)-4-methoxyphenyl)-2-hydroxy-N,2-dimethylpropanamide], the IC50 amounted to 20 nM.
Compound `COc1ccccc1C1=C(CN2C(=O)O[C@H](c3cc(C(F)(F)F)cc(C(F)(F)F)c3)[C@@H]2C)CC(C)(C)CC1` [Compound 18, (4S,5R)-5-(3,5-bis(trifluoromethyl)phenyl)-3-((2-(2-methoxyphenyl)-5,5-dimethylcyclohex-1-enyl)methyl)-4-methyloxazolidin-2-one] returned an IC50 of 1360 nM. This IC50 is about 68-fold higher than that of the compound before.
`COc1cc(F)c(OCC(F)(F)F)cc1C1=C(CN2C(=O)O[C@H](c3cc(C(F)(F)F)cc(C(F)(F)F)c3)[C@@H]2C)CC(C)(C)CC1` [Compound 222, (4S,5R)-5-(3,5-bis(trifluoromethyl)phenyl)-3-((2-(4-fluoro-2-methoxy-5-(2,2,2-trifluoroethoxy)phenyl)-5,5-dimethylcyclohex-1-enyl)methyl)-4-methyloxazolidin-2-one] had an IC50 of 40 nM.
Turning to `COC(=O)C1(Cc2ccc(OC)c(C3=C(CN4C(=O)O[C@H](c5cc(C(F)(F)F)cc(C(F)(F)F)c5)[C@@H]4C)CC(C)(C)CC3)c2)CCCC1` [Compound 323, methyl 1-(3-(2-(((4S,5R)-5-(3,5-bis(trifluoromethyl)phenyl)-4-methyl-2-oxooxazolidin-3-yl)methyl)-4,4-dimethylcyclohex-1-enyl)-4-methoxybenzyl)cyclopentanecarboxylate], inhibition was half-maximal at 58 nM (IC50).
`COc1ccc(C2=N[C@H](C(C)C)CO2)cc1C1=C(CN2C(=O)O[C@H](c3cc(C(F)(F)F)cc(C(F)(F)F)c3)[C@@H]2C)CC(C)(C)CC1` [Compound 188, (4S,5R)-5-(3,5-bis(trifluoromethyl)phenyl)-3-((2-(5-((R)-4-isopropyl-4,5-dihydrooxazol-2-yl)-2-methoxyphenyl)-5,5-dimethylcyclohex-1-enyl)methyl)-4-methyloxazolidin-2-one] yielded an IC50 of 120 nM. This IC50 lies about 2.1-fold higher than the previous one.
For `COc1ccc(C=O)cc1C1=C(CN2C(=O)O[C@H](c3cc(C(F)(F)F)cc(C(F)(F)F)c3)[C@@H]2C)CCCC1` [Compound 79, 3-(2-(((4S,5R)-5-(3,5-bis(trifluoromethyl)phenyl)-4-methyl-2-oxooxazolidin-3-yl)methyl)cyclohex-1-enyl)-4-methoxybenzaldehyde], 890 nM corresponded to half-maximal inhibition (IC50). Against the preceding compound, the IC50 is about 7.4-fold higher.
In turn, `COc1ccc(N(C)C(=O)CC(F)(F)F)cc1C1=C(CN2C(=O)O[C@H](c3cc(C(F)(F)F)cc(C(F)(F)F)c3)[C@@H]2C)CC(C)(C)CC1` [Compound 130, N-(3-(2-(((4S,5R)-5-(3,5-bis(trifluoromethyl)phenyl)-4-methyl-2-oxooxazolidin-3-yl)methyl)-4,4-dimethylcyclohex-1-enyl)-4-methoxyphenyl)-3,3,3-trifluoro-N-methylpropanamide] yielded a half-inhibitory concentration (IC50) of 20 nM.
In the case of `COc1ccc(C(OC)(C(F)(F)F)C(F)(F)F)cc1C1=C(CN2C(=O)O[C@H](c3cc(C(F)(F)F)cc(C(F)(F)F)c3)[C@@H]2C)CC(C)(C)CC1` [Compound 182, (4S,5R)-5-(3,5-bis(trifluoromethyl)phenyl)-3-((2-(5-(1,1,1,3,3,3-hexafluoro-2-methoxypropan-2-yl)-2-methoxyphenyl)-5,5-dimethylcyclohex-1-enyl)methyl)-4-methyloxazolidin-2-one], the midpoint of inhibition, the IC50, lay at 50 nM. Compared with the last compound, the IC50 is about 2.5-fold higher.
Then `COc1ccc(N)cc1C1=C(CN2C(=O)O[C@H](c3cc(C(F)(F)F)cc(C(F)(F)F)c3)[C@@H]2C)CC(C(F)(F)F)CC1` (stereo partly drawn) [Compound 195, (4S,5R)-3-((2-(5-amino-2-methoxyphenyl)-5-(trifluoromethyl)cyclohex-1-enyl)methyl)-5-(3,5-bis(trifluoromethyl)phenyl)-4-methyloxazolidin-2-one], with 840 nM; and `COC(=O)C(C)(C)Cc1ccc(OC)c(C2=C(CN3C(=O)O[C@H](c4cc(C(F)(F)F)cc(C(F)(F)F)c4)[C@@H]3C)CC(C)(C)CC2)c1` [Compound 285, methyl 3-(3-(2-(((4S,5R)-5-(3,5-bis(trifluoromethyl)phenyl)-4-methyl-2-oxooxazolidin-3-yl)methyl)-4,4-dimethylcyclohex-1-enyl)-4-methoxyphenyl)-2,2-dimethylpropanoate], with 33 nM.
